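Where inhibition never reached the appropriate level, the endpoint shown equals the highest concentration tested. Otherwise, values were interpolated linearly from a five-concentration, 48-hour dose response in 96-well plates. Here, GI50 denotes the concentration required for 50% inhibition of growth. TGI: total growth inhibition.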
How the values were obtained:
Assay in all cases: NCI anticancer screen, dose series, 48 h
KM12 colon = system: KM12 colon
A549 NSCLC = system: A549 NSCLC
SNB-75 CNS = system: SNB-75 CNS
BT-549 breast = system: BT-549 breast
UACC-257 melanoma = system: UACC-257 melanoma
SR leukemia = system: SR leukemia
EKVX NSCLC = system: EKVX NSCLC
OVCAR-4 ovarian = system: OVCAR-4 ovarian
UACC-62 melanoma = system: UACC-62 melanoma
SNB-19 CNS = system: SNB-19 CNS
HCT-15 colon = system: HCT-15 colon
CCRF-CEM leukemia = system: CCRF-CEM leukemia
SN12C renal = system: SN12C renal
HT29 colon = system: HT29 colon
MOLT-4 leukemia = system: MOLT-4 leukemia
786-0 renal = system: 786-0 renal
OVCAR-3 ovarian = system: OVCAR-3 ovarian
COLO 205 colon = system: COLO 205 colon
NCI-H226 lung = system: NCI-H226 lung
MDA-MB-435 = system: MDA-MB-435
A498 renal = system: A498 renal
RXF 393 renal = system: RXF 393 renal
OVCAR-8 ovarian = system: OVCAR-8 ovarian
SF-539 CNS = system: SF-539 CNS
K-562 leukemia = system: K-562 leukemia
SK-MEL-2 melanoma = system: SK-MEL-2 melanoma
SW-620 colon = system: SW-620 colon
PC-3 prostate = system: PC-3 prostate
M14 melanoma = system: M14 melanoma
HCT-116 colon = system: HCT-116 colon
HOP-92 NSCLC = system: HOP-92 NSCLC
TK-10 renal = system: TK-10 renal
MDA-MB-231 breast = system: MDA-MB-231 breast
DU-145 prostate = system: DU-145 prostate
NCI-H460 lung = system: NCI-H460 lung
SF-295 CNS = system: SF-295 CNS
SK-MEL-28 melanoma = system: SK-MEL-28 melanoma
HCC-2998 colon = system: HCC-2998 colon
HL-60(TB) leukemia = system: HL-60(TB) leukemia
ACHN renal = system: ACHN renal
NCI/ADR-RES ovarian = system: NCI/ADR-RES ovarian
UO-31 renal = system: UO-31 renal
HS 578T breast = system: HS 578T breast
OVCAR-5 ovarian = system: OVCAR-5 ovarian
IGROV1 ovarian = system: IGROV1 ovarian
CAKI-1 renal = system: CAKI-1 renal
MCF7 breast = system: MCF7 breast
U251 CNS = system: U251 CNS
RPMI-8226 leukemia = system: RPMI-8226 leukemia
HOP-62 NSCLC = system: HOP-62 NSCLC
SF-268 CNS = system: SF-268 CNS
SK-MEL-5 melanoma = system: SK-MEL-5 melanoma
NCI-H23 lung = system: NCI-H23 lung
T-47D breast = system: T-47D breast
MALME-3M melanoma = system: MALME-3M melanoma
LOX IMVI melanoma = system: LOX IMVI melanoma
SK-OV-3 ovarian = system: SK-OV-3 ovarian
MDA-MB-468 breast = system: MDA-MB-468 breast

FC(F)(F)c1cc2c(Cl)ncnc2n1CCN1CCCCC1
GI50 (KM12 colon): 29.8 µM | TGI (KM12 colon): > 100 µM | GI50 (A549 NSCLC): 80.1 µM | TGI (A549 NSCLC): > 100 µM | GI50 (SNB-75 CNS): 10.5 µM | TGI (SNB-75 CNS): 22.5 µM | GI50 (BT-549 breast): 15 µM | TGI (BT-549 breast): 29.8 µM | GI50 (UACC-257 melanoma): 11.8 µM | TGI (UACC-257 melanoma): 30.4 µM | GI50 (SR leukemia): 3.28 µM | TGI (SR leukemia): 26.1 µM | GI50 (EKVX NSCLC): 16.3 µM | TGI (EKVX NSCLC): 85.5 µM | GI50 (OVCAR-4 ovarian): 28.5 µM | TGI (OVCAR-4 ovarian): > 100 µM | GI50 (UACC-62 melanoma): 12.2 µM | TGI (UACC-62 melanoma): 30.5 µM | GI50 (SNB-19 CNS): 15.2 µM | TGI (SNB-19 CNS): 31.3 µM | GI50 (HCT-15 colon): 3.16 µM | TGI (HCT-15 colon): 12.8 µM | GI50 (CCRF-CEM leukemia): 11 µM | TGI (CCRF-CEM leukemia): > 100 µM | GI50 (SN12C renal): 19.4 µM | TGI (SN12C renal): > 100 µM | GI50 (HT29 colon): 21.1 µM | TGI (HT29 colon): 81.3 µM | GI50 (MOLT-4 leukemia): 10.5 µM | TGI (MOLT-4 leukemia): 55.2 µM | GI50 (786-0 renal): 39.8 µM | TGI (786-0 renal): > 100 µM | GI50 (OVCAR-3 ovarian): 17.6 µM | TGI (OVCAR-3 ovarian): 35.5 µM | GI50 (COLO 205 colon): 52.7 µM | TGI (COLO 205 colon): > 100 µM | GI50 (NCI-H226 lung): 60.6 µM | TGI (NCI-H226 lung): > 100 µM | GI50 (MDA-MB-435): 13.1 µM | TGI (MDA-MB-435): 29.9 µM | GI50 (A498 renal): > 100 µM | TGI (A498 renal): > 100 µM | GI50 (RXF 393 renal): 15.6 µM | TGI (RXF 393 renal): 40.9 µM | GI50 (OVCAR-8 ovarian): 12.5 µM | TGI (OVCAR-8 ovarian): 32.8 µM | GI50 (SF-539 CNS): 17.1 µM | TGI (SF-539 CNS): 36.2 µM | GI50 (K-562 leukemia): 2.91 µM | TGI (K-562 leukemia): > 100 µM | GI50 (SK-MEL-2 melanoma): 16.5 µM | TGI (SK-MEL-2 melanoma): 32.9 µM | GI50 (SW-620 colon): 11.2 µM | TGI (SW-620 colon): 28.7 µM | GI50 (PC-3 prostate): 15.2 µM | TGI (PC-3 prostate): 47.9 µM | GI50 (M14 melanoma): 12.8 µM | TGI (M14 melanoma): 33.4 µM | GI50 (HCT-116 colon): 4.86 µM | TGI (HCT-116 colon): 20.3 µM | GI50 (HOP-92 NSCLC): 19.7 µM | TGI (HOP-92 NSCLC): 53.8 µM | GI50 (TK-10 renal): > 100 µM | TGI (TK-10 renal): > 100 µM | GI50 (MDA-MB-231 breast): 5.47 µM | TGI (MDA-MB-231 breast): 19.7 µM | GI50 (DU-145 prostate): 30.5 µM | TGI (DU-145 prostate): > 100 µM | GI50 (NCI-H460 lung): 18.3 µM | TGI (NCI-H460 lung): 50.6 µM | GI50 (SF-295 CNS): 22.6 µM | TGI (SF-295 CNS): 86.3 µM | GI50 (SK-MEL-28 melanoma): 16 µM | TGI (SK-MEL-28 melanoma): 37.7 µM | GI50 (HCC-2998 colon): 4.11 µM | TGI (HCC-2998 colon): 14.3 µM | GI50 (HL-60(TB) leukemia): 2.07 µM | TGI (HL-60(TB) leukemia): 7.47 µM | GI50 (ACHN renal): 6.46 µM | TGI (ACHN renal): > 100 µM | GI50 (NCI/ADR-RES ovarian): 24 µM | TGI (NCI/ADR-RES ovarian): 64.8 µM | GI50 (UO-31 renal): 1.74 µM | TGI (UO-31 renal): 3.58 µM | GI50 (HS 578T breast): 16.4 µM | TGI (HS 578T breast): 60 µM | GI50 (OVCAR-5 ovarian): > 100 µM | TGI (OVCAR-5 ovarian): > 100 µM | GI50 (IGROV1 ovarian): 2.98 µM | TGI (IGROV1 ovarian): 10.3 µM | GI50 (CAKI-1 renal): 25.3 µM | TGI (CAKI-1 renal): > 100 µM | GI50 (MCF7 breast): 19.6 µM | TGI (MCF7 breast): 76.5 µM | GI50 (U251 CNS): 14.1 µM | TGI (U251 CNS): 34.9 µM | GI50 (RPMI-8226 leukemia): 31.5 µM | TGI (RPMI-8226 leukemia): > 100 µM | GI50 (HOP-62 NSCLC): 38.1 µM | TGI (HOP-62 NSCLC): > 100 µM | GI50 (SF-268 CNS): 16 µM | TGI (SF-268 CNS): 38.6 µM | GI50 (SK-MEL-5 melanoma): 14.9 µM | TGI (SK-MEL-5 melanoma): 31.1 µM | GI50 (NCI-H23 lung): 13.9 µM | TGI (NCI-H23 lung): 39.3 µM | GI50 (T-47D breast): 21.9 µM | TGI (T-47D breast): > 100 µM | GI50 (MALME-3M melanoma): 19 µM | TGI (MALME-3M melanoma): 55.4 µM | GI50 (LOX IMVI melanoma): 1.69 µM | TGI (LOX IMVI melanoma): 3.11 µM | GI50 (SK-OV-3 ovarian): 52.3 µM | TGI (SK-OV-3 ovarian): > 100 µM | GI50 (MDA-MB-468 breast): 3.02 µM | TGI (MDA-MB-468 breast): 9.43 µM

— PubChem BioAssay (NCI)
